Source: patent publication US20180200293A1, “STABILIZED GOLD NANOPARTICLES” (priority 2014, published 2018)

What was measured:
[1] = scavenger concentrations as high as 2 M; cited from earlier work
[2] = Electron capture by AuNPs in water, muon spin resonance (μSR); conditions: degassed 0.1 M aqueous surfactant reference solution, absence of AuNPs
Description: To deconstruct the complex electron-transfer reactions in water, we used a highly sensitive spectroscopic technique involving the positive muon (μ+) using the muon spin resonance (μSR) technique (18). The μSR technique is a type of spin spectroscopy that makes use of short-lived subatomic particles, muons (μ^+), which are sensitive magnetic and electronic probes of matter.
A degassed 0.1 M aqueous solution of the dissolved surfactant (bac-14) was used as a reference. […] These electrons therefore combine with positive muons or MuH2O^+ ions to form paramagnetic muonium, an ultra-light hydrogen atom (0.11H) that adds to the aromatic ring of the surfactant (FIG. 15).
The diamagnetic fraction shown in the transverse field spectra (FIG. 17) is enhanced when muons enter the AuNP solution, as compared with the reference solution containing a similar surfactant concentration and evaluated under the same experimental conditions (same sample geometry and magnetic field).
In aqueous solutions, the competition of Reactions 1-5 in the radiation track determines the muon fractions (19-21). […]
where [AuNP] is the AuNP concentration calculated to be 4.89×10^-7 M (see supplementary information) and the muon thermalization rate (10) is at least 1 ns−1.
The lower limit of the electron capture rate constant (ke) for the AuNPs, using Eq. 1, was determined to be 2×10^15 M^−1 s^−1. […]

| SMILES | electron capture rate (reported for known scavengers) [1] [M⁻¹ s⁻¹] | trapping of solvated or pre-solvated electrons [2] |
| --- | --- | --- |
| CC(C)O [isopropanol] | 2.3e+11 |  |
| O=[N+]([O-])[O-].[K+] [KNOB] | 1.2e+13 |  |
| C[S+](C)[O-] [DMSO] | 8.1e+11 |  |
| CCCCCCCCCCCCCC[N+](C)(C)Cc1ccccc1.[Cl-] [bac-14, Benzyldimethyltetradecylammonium chloride] |  | unable to effectively trap the solvated or pre-solvated electrons |
